Source: patent publication US12583846B2, “2H-benzopyran derivatives as CRAC inhibitors” (CISEN PHARMACEUTICAL CO., LTD, priority 2019, dated 2026)
Each block holds one compound with its values, some of them ahead of it.

Assays:
IL-2 = test: Inhibitory activity on cytokines: IL-2 in supernatant of anti-CD3/anti-CD28 stimulated hPBMC by CBA method; type: cell-based; conditions: Homo sapiens, 48 h, anti-CD3/anti-CD28, 2 days incubation
Procedure: (§1) Human peripheral blood mononuclear cells (hPBMC); supplier: HemaCare; Article Number: PB009C-2
(§2) 96-well plates were coated with 5 μg/mL anti-human CD3 antibody (in DPBS) at […] overnight at 4° C.
(§3) PBMC were removed from liquid nitrogen and immediately placed in a 37° C. water bath for recovery. To a 15 mL centrifuge tube, 5 mL culture medium (RPMI1640 culture medium+10% fetal bovine serum+1% non-essential amino acids+1% penicillin streptomycin+0.05 mM β-mercaptoethanol) was added, and the cell suspension was pipetted to the centrifuge tube, and the mixture was centrifuged at 320 g for 5 minutes. The cells were resuspended with culture medium and counted, and the cell concentration was then adjusted to 5×10^5 cells/mL with the culture medium, To the cell suspension was added anti-human CD28 antibody (final concentration 2 μg/mL), and the mixture was inoculated into a 96-well plate at 200 μL/well.
(§4) Compounds were prepared at the desired concentration and added to the cells. The mixture was incubated at 37° C., 5% CO2 for 2 days.
The standards were prepared according to the instructions of IL-2 and TNFα Flex Set kit. The supernatant of the cultured cells was diluted 5-fold with the buffer provided in the kit and added to a 96-well plate together with the standards. The plated was added with magnetic beads containing antibody from the kit, and incubated at room temperature for 1 hour. The fluorescein PE-labeled secondary antibody in the kit was added and incubated at room temperature for 2 hours. The average fluorescence intensity of the PE channel was detected by flow cytometry. Based on the average fluorescence intensity of the standards, the contents of IL-2 and TNF-α of the samples were calculated.

[1] = Pharmacokinetic evaluation experiment in mice (intravenous or intraperitoneal injection of compound 6); type: in vivo, C57BL/6 mice
Procedure: Purpose of the experiment: male C57BL/6 mice were used as test animals, and the plasma drug concentrations of the test compounds were determined by LC/MS/MS at different time points after intravenous or intraperitoneal injection. The pharmacokinetic behavior of the test compound in mice was studied to evaluate its pharmacokinetic characteristics.
Drug preparation: an appropriate amount of sample was weighed to prepare 0.3 mg/mL or 0.5 mg/mL clear solution with 40% PEG400+20% Solutol+40% H2O (volume ratio).
Administration scheme: two healthy male C57BL/6 mice purchased from Beijing Vital River Laboratory Animal Technology Co., Ltd. was on a normal diet. The intravenous injection group was administered with 0.5 mg/mL solution, with a dose volume of 2 mL/kg and a dose of 1 mg/kg. The intraperitoneal injection group was administered with 0.3 mg/mL solution, with a volume of 10 mL/kg and a dose of 3 mg/kg.
(§5) Procedure: after animal administration, 25 μL of blood was collected at 0.083, 0.25, 0.5, 1, 2, 4, 8, 12, and 24 hours, respectively and placed in a commercial anticoagulative tube pre-loaded with EDTA-K2. The tubes were centrifuged for 10 minutes to separate plasma and stored at −60° C. The content of target compound in plasma samples was determined by LC/MS/MS.

[2] = Pharmacokinetic evaluation in mice (intravenous administration of compound 18 or 22, 50 mg/kg); type: in vivo, C57BL/6 mice; conditions: for elimination in plasma after administration (in words): intravenous 50 mg/kg
Procedure: Purpose of the experiment: male C57BL/6 mice were used as test animals, and the LC/MS/MS method was applied to determine the plasma drug concentrations of the compounds at different time points after intravenous administration. The pharmacokinetic behavior of the compounds in mice was studied, and their pharmacokinetic characteristics were evaluated.
Drug preparation: an appropriate amount of sample was weighed to prepare 5 mg/mL of clear solution with sterile normal saline.
Administration scheme: two healthy male C57BL/6 mice purchased from Beijing Vital River Laboratory Animal Technology Co., Ltd. was on a normal diet, with a volume of 10 mL/kg and a dose of 50 mg/kg.
as §5, with “the corresponding compounds” for “target compound”

TNF-α = test: Inhibitory activity on cytokines: TNFα in supernatant of anti-CD3/anti-CD28 stimulated hPBMC by CBA method; type: cell-based; conditions: Homo sapiens, 48 h, anti-CD3/anti-CD28, 2 days incubation
Procedure: as §1, §2, §3, §4
The standards were prepared according to the instructions of IL-2 and TNFα Flex Set kit. […] The average fluorescence intensity of the PE channel was detected by flow cytometry. Based on the average fluorescence intensity of the standards, the contents of IL-2 and TNF-α of the samples were calculated.

[3] = test system: bombesin-induced acute pancreatitis model in mice; test: Pharmacodynamic test of bombesin-induced acute pancreatitis in mice (compound 6); type: in vivo, C57BL/6 mice; conditions: compound 6 intraperitoneal 20 mg/kg; bombesin 50 μg/kg x 7; FIG. 2
Procedure: Purpose of the experiment: male C57BL/6 mice were used as test animals, and acute pancreatitis was induced by intraperitoneal injection of bombesin. The efficacy of compound 6 on acute pancreatitis was studied.
Drug preparation: an appropriate amount of sample was weighed, and compound 6 was prepared to a 4 mg/mL clear solution with 40% PEG-400+20% Solutol+40%+H2O (v/v).
Experiment scheme: healthy male C57BL/6 mice were injected with bombesin intraperitoneally to induce pancreatitis model, at a dose of 50 μg/kg each time, with 7 injections at an interval of 1 hour. One hour after the seventh injection of bombesin, serum was taken and the levels of amylase and lipase were measured. Compound 6 was administered by intraperitoneal injection at a dose of 20 mg/kg.
Experimental results: see FIG. 2. The levels of plasma amylase (AMY) and lipase (LPS) were analyzed by one-way ANOVA, * * indicates significant difference with G1 (P<0.01), * indicates significant difference with G1 (P<0.05).

[4] = Thermodynamic solubility test; type: physicochemical; conditions: for solubility in water (in words): conclusion of the thermodynamic solubility test
Procedure: About 2 mg of test compound was weighed into a whatman vial, and 450 μL of phosphate buffer (50 mM, pH=7.4) was added. The stopper of whatman vial was pressed to near the liquid level so that the filter membrane in the stopper is in uniform contact with the liquid level. The vial was shaken well up and down on vortex for two minutes, and the dissolution of test compound in the whatman vial was recorded. The whatman vial was shaken in a shaker at ambient temperature for 24 hours at a rotational speed of 600 r/min. The stopper of whatman vial was slowly pressed to the lowermost part to obtain the supernatant. […] A linear solution (3 standard solutions, 1, 20, 200 μM, n=1) was prepared with diluent. The supernatant was taken out, and 10 μL of the supernatant was accurately taken out and diluted 100 times. The obtained diluent and stock solution and linear solution were simultaneously put into HPLC for detection and analysis, and the results were calculated by an external standard method according to peak area and dilution factor.

[5] = male, C57BL/6, mouse, plasma, intravenous injection, 1 mg/kg
[6] = male, C57BL/6, mouse, plasma, ip, intraperitoneal injection, 3 mg/kg
[7] = administered compound itself in plasma, 50 mg/kg intravenous, mice, 50 mg/kg
[8] = male, C57BL/6, mouse, plasma, iv, 50 mg/kg, administered compound itself in plasma, 50 mg/kg intravenous, mice

DNAUC0-last (exposure normalized to molar dose) [2, 7]: 0.69 µM·h
AUC(0-t) [2, 8]: 57.2 µM·h
clearance [2, 8]: 25.1 mL/min/kg
half-life [2, 8]: 2.49 h
Vd ([2]; male, C57BL/6, mouse, plasma, iv, 50 mg/kg, administered compound itself in plasma, 50 mg/kg intravenous, mice, read-out: Vdss): 0.84 L/kg
elimination in plasma after administration (in words) ([2]; mice): rapidly eliminated
solubility thermodynamic at 24 h ([4]; aqueous buffer, thermodynamic from solid, phosphate buffer 50 mM, pH 7.4, 24 hours, ambient temperature): > 200 µM
solubility in water (in words) [4]: very good
Compound: O=C(c1c(F)cccc1F)N(COP(=O)(O)O)c1cnc(-c2cc3oc(C4CC4)cc3cc2Cl)cn1 [Compound 18]

AUC0-last [2, 7]: 37.1 µM·h
CL [2, 7]: 28.9 mL/min/kg
DNAUC0-last (exposure normalized to molar dose) [2, 7]: 0.58 µM·h
T1/2 [2, 7]: 2.53 h
Vdss [2, 7]: 1.05 L/kg
elimination in plasma after administration (in words) ([2]; mice): rapidly eliminated
solubility in water (in words) [4]: very good
Compound: O=C(c1c(F)cccc1F)N(COP(=O)(O)O)c1cnc(-c2cc3oc(C4CC4)cc3cc2Cl)cn1 [Compound 22]

solubility in water (in words) [4]: very good
Compound: O=C(c1c(F)cccc1F)N(COP(=O)(O)O)c1cnc(-c2cc3oc(C4CC4)cc3cc2Cl)cn1 [Compound 23]

The remaining lines, values behind:

Compound: O=C(Nc1cnc(-c2cc3oc(C4CC4)nc3cc2Cl)cn1)c1c(F)cccc1F [Compound 4]
IC50 (IL-2): 280 nM

Compound: O=C(Nc1cnc(-c2cc3oc(C4CC4)cc3cc2Cl)cn1)c1c(F)cccc1F [Compound 6]
plasma exposure and pharmacokinetic properties (in words) ([1]; intravenous and intraperitoneal routes): higher plasma exposure and desirable pharmacokinetic properties
bioavailability ([1]; male, C57BL/6, mouse, plasma, intraperitoneal 3 mg/kg vs intravenous 1 mg/kg): 125%
AUC(0-t) [1, 5]: 15.6 µM·h
clearance [1, 5]: 2.05 mL/min/kg
half-life [1, 5]: 10.6 h
Vd ([1]; male, C57BL/6, mouse, plasma, intravenous injection, 1 mg/kg, read-out: Vdss): 1.77 L/kg
AUC(0-t) [1, 6]: 62.7 µM·h
Cmax [1, 6]: 5.53 µM
Tmax [1, 6]: 2 h
formation of compound 6 in plasma (in words) ([2]; from 5 min of administration of compound 18 or 22, mice): a large amount
IC50 (IL-2): 63.8 nM
IC50 (TNF-α): 138 nM
serum amylase (AMY) level [3]: significantly reduce
serum lipase (LPS) level [3]: significantly reduce

Compound: O=C(Nc1cnc(-c2cc3oc(C4COC4)cc3cc2Cl)cn1)c1c(F)cccc1F [Compound 17]
IC50 (IL-2): 173 nM
IC50 (TNF-α): 328 nM
